Experimental data published in patent US20220071932A1, “Compositions and Methods Against Stress-Induced Affective Disorders and Their Associated Symptoms” (The Trustees of Columbia University in the City of New York, priority 2019, published 2022).

How the values were obtained:
c-fos = c-fos immunohistochemistry in hippocampus after CFC re-exposure; assay type: in vivo, mice; conditions: one week prior to CFC, sacrificed one hour after re-exposure; (R,S)-ketamine 30 mg/kg, FENM 20 mg/kg; vs saline
Procedure: Immunohistochemistry was performed as previously described (46). Mice were deeply anesthetized, and brains were fixed and extracted using transcardial perfusion. For c-fos immunohistochemistry, floating sections were used. Sections were first rinsed three times in 1×PBS and then blocked in 1×PBS with 0.5% Triton X-100 and 10% NDS for 2 hours at room temperature (RT). Incubation with primary antibodies was performed at 4° C. overnight (rabbit anti-c-fos, 1:5000, SySy, Göettingen, Germany, 226 003) in 1×PBS with 0.5% Triton X-100. Sections were then washed three times in 1×PBS and incubated with secondary antibody (Alexa 647 anti-rabbit, 1:500, Thermo Fisher Scientific, Waltham, Mass. A32733) for 2 hours at RT. Sections were then washed three times in 1×PBS, mounted on slides, and coverslipped with ProLong Gold (Invitrogen, Carlsbad, Calif.).
Fluorescent confocal micrographs were captured with a Leica TCS SPE-II confocal microscope with LAS X software. Bilateral hippocampal sections were imaged throughout the rostro-caudal axis of the HPC using a 20× objective. Identification of hippocampal regions involved acquiring 6 dorsal and ventral sections per mouse brain slice at 20×. […]
An investigator blind to treatment groups used FIJI software to count c-fos^+ immunoreactive cells in the DG, CA3, and CA1 throughout the entire rostrocaudal axis of the HPC. Cells were counted bilaterally. […]

NMDARs = conditions: ex vivo autoradiography and immunohistochemical staining; cited from earlier work
[1] = test system: depressive symptoms in patients; conditions: subanesthetic dose; patients; cited from earlier work
NMDAR = conditions: relative to (R,S)-ketamine; cited from earlier work

Structure (SMILES) | c-fos expression in the ventral CA3 of the hippocampus (c-fos) | [18F]-FENM colocalization with NMDARs when (R,S)-ketamine was administered (NMDARs) | duration of relief of depressive symptoms [1] | time to relief of depressive symptoms after administration [1] [h] | affinity as NMDAR antagonist (NMDAR)
CNC1(c2ccccc2Cl)CCCCC1=O (racemic) [(R,S)-ketamine, reference compound] | significantly increased c-fos expression | colocalization with NMDARs was lost | up to 3 weeks | 2 | –
NC12CC3CC(C1)CC(CCF)(C3)C2 [FENM, 1-amino-3-fluoroethyl-adamantane] | – | – | – | – | lower affinity than (R,S)-ketamine
